What follows are molecules tested against PI3Kδ (p110δ/p85α) (Homo sapiens (Human), UniProt O00329) (assay: PI3Kδ scintillation proximity assay (Example A3)). Conditions: 20 μM ATP, 20 μM PIP2, 4 nM PI3Kδ; read-out: PI3Kδ SPA IC50.
Assay type: biochemical
In short: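 Human PI3Kδ (p110δ/p85α, 4 nM) with 20 μM PIP2 and 20 μM ATP plus [γ-33P]ATP in 20 mM MOPS pH 6.7, 10 mM MgCl2, 5 mM DTT, 0.03% CHAPS, 0.5% DMSO, room temperature. Reaction stopped with EDTA/excess ATP; product captured on WGA SPA beads and counted. IC50 from percent control activity vs log inhibitor.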

Sequence of PI3Kδ (p110δ/p85α) (O00329 whole entry): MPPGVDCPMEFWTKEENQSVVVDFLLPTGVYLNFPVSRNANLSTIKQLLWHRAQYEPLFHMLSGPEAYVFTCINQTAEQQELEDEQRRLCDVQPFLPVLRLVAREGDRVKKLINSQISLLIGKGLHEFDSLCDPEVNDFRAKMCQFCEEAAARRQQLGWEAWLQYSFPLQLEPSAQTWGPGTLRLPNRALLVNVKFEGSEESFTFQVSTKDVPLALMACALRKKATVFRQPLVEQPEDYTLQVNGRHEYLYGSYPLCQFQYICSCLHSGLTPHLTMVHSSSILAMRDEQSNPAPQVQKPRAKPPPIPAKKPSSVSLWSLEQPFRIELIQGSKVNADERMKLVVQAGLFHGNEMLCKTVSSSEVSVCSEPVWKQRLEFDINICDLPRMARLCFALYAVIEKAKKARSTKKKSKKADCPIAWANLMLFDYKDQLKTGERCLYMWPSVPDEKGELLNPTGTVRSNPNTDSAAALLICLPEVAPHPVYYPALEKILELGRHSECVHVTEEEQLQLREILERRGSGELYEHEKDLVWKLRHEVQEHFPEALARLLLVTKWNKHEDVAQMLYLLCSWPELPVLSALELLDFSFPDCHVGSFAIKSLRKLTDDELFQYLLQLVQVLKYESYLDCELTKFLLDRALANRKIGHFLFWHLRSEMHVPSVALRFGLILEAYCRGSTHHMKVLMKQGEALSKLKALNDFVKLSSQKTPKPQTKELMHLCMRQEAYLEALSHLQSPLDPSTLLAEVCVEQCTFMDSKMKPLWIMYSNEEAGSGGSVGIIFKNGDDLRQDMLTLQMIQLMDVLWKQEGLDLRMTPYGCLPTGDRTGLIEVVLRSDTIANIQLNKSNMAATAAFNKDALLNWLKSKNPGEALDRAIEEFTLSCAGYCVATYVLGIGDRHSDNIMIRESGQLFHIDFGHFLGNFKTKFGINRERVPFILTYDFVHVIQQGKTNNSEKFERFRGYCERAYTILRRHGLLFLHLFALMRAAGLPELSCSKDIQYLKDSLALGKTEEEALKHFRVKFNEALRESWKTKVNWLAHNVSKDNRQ
Sequence of PI3Kδ (p110δ/p85α) (P27986 whole entry partner): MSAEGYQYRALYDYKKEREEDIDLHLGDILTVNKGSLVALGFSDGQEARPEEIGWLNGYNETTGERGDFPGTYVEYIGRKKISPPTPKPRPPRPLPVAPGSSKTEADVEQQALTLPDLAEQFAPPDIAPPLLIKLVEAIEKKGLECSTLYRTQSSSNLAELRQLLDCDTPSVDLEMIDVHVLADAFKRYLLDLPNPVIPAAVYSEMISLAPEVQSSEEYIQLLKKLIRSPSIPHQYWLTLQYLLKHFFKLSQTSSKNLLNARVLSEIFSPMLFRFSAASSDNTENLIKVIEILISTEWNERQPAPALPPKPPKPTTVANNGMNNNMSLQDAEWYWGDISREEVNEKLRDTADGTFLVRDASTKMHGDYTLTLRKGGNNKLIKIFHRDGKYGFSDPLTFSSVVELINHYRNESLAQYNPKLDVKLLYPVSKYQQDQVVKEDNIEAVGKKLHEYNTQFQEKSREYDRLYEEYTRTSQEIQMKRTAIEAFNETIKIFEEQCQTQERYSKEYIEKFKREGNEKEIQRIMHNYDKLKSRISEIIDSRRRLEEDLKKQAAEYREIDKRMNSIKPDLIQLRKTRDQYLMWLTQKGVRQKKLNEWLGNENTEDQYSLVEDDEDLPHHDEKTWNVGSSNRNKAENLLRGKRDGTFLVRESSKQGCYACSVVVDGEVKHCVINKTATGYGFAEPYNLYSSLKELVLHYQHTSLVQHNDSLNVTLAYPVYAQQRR

IC50, ≤ 10 nM:
CCOc1c(C(C)n2nc(C)c3c(N)ncnc32)cc(Cl)c(C#N)c1C1CN(C2CCOC2)C1 (single isomer, unassigned) [Example 227, 4-[1-(4-Amino-3-methyl-1H-pyrazolo[3,4-d]pyrimidin-1-yl)ethyl]-6-chloro-3-ethoxy-2-[1-(tetrahydrofuran-3-yl)azetidin-3-yl]benzonitrile]
CCOc1c(C(C)n2nc(C)c3c(N)ncnc32)cc(Cl)c(C#N)c1C1CN(CC2CCOC2)C1 (single isomer, unassigned) [Example 230, 4-[1-(4-Amino-3-methyl-1H-pyrazolo[3,4-d]pyrimidin-1-yl)ethyl]-6-chloro-3-ethoxy-2-[1-(tetrahydrofuran-3-ylmethyl)azetidin-3-yl]benzonitrile]
CCOc1c(C(C)n2nc(C)c3c(N)ncnc32)cc(Cl)c(C#N)c1C1CN(CC2CCOCC2)C1 (single isomer, unassigned) [Example 232, 4-[1-(4-Amino-3-methyl-1H-pyrazolo[3,4-d]pyrimidin-1-yl)ethyl]-6-chloro-3-ethoxy-2-[1-(tetrahydro-2H-pyran-4-ylmethyl)azetidin-3-yl]benzonitrile]
CCOc1c(C(C)n2nc(C)c3c(N)ncnc32)cc(Cl)c(C#N)c1C1CN(CC(F)(F)F)C1 (single isomer, unassigned) [Example 233, 4-[1-(4-Amino-3-methyl-1H-pyrazolo[3,4-d]pyrimidin-1-yl)ethyl]-6-chloro-3-ethoxy-2-[1-(2,2,2-trifluoroethyl)azetidin-3-yl]benzonitrile]
CCOc1c(C(C)n2nc(C)c3c(N)ncnc32)cc(Cl)c(C#N)c1C1CN(C(C)(C)C(=O)NC)C1 (single isomer, unassigned) [Example 240, 2-(3-{3-[1-(4-Amino-3-methyl-1H-pyrazolo[3,4-d]pyrimidin-1-yl)ethyl]-5-chloro-6-cyano-2-ethoxyphenyl}azetidin-1-yl)-N,2-dimethylpropanamide]
CCOc1c(C(C)n2nc(C)c3c(N)ncnc32)cc(Cl)c(C#N)c1C1CN(C(C)=O)C1 (single isomer, unassigned) [Example 242, 2-(1-Acetylazetidin-3-yl)-4-[1-(4-amino-3-methyl-1H-pyrazolo[3,4-d]pyrimidin-1-yl)ethyl]-6-chloro-3-ethoxybenzonitrile]
CCOc1c(C(C)n2nc(C)c3c(N)ncnc32)cc(Cl)c(C#N)c1C1CN(C(=O)CC)C1 (single isomer, unassigned) [Example 243, 4-[1-(4-Amino-3-methyl-1H-pyrazolo[3,4-d]pyrimidin-1-yl)ethyl]-6-chloro-3-ethoxy-2-(1-propionylazetidin-3-yl)benzonitrile]
CCOc1c(C(C)n2nc(C)c3c(N)ncnc32)cc(Cl)c(C#N)c1C1CN(C(=O)C(C)C)C1 (single isomer, unassigned) [Example 244, 4-[1-(4-Amino-3-methyl-1H-pyrazolo[3,4-d]pyrimidin-1-yl)ethyl]-6-chloro-3-ethoxy-2-(1-isobutyrylazetidin-3-yl)benzonitrile]
CCOc1c(C(C)n2nc(C)c3c(N)ncnc32)cc(Cl)c(C#N)c1C1CN(C(=O)C(C)(C)C)C1 (single isomer, unassigned) [Example 245, 4-[1-(4-Amino-3-methyl-1H-pyrazolo[3,4-d]pyrimidin-1-yl)ethyl]-6-chloro-2-[1-(2,2-dimethylpropanoyl)azetidin-3-yl]-3-ethoxybenzonitrile]
CCOc1c(C(C)n2nc(C)c3c(N)ncnc32)cc(Cl)c(C#N)c1C1CN(C(=O)C2CC2)C1 (single isomer, unassigned) [Example 246, 4-[1-(4-Amino-3-methyl-1H-pyrazolo[3,4-d]pyrimidin-1-yl)ethyl]-6-chloro-2-[1-(cyclopropylcarbonyl)azetidin-3-yl]-3-ethoxybenzonitrile]
CCOc1c(C(C)n2nc(C)c3c(N)ncnc32)cc(Cl)c(C#N)c1C1CN(S(=O)(=O)C(C)C)C1 (single isomer, unassigned) [Example 250, 4-[1-(4-Amino-3-methyl-1H-pyrazolo[3,4-d]pyrimidin-1-yl)ethyl]-6-chloro-3-ethoxy-2-[1-(isopropylsulfonyl)azetidin-3-yl]benzonitrile]
CCOc1c(C(C)n2nc(C)c3c(N)ncnc32)cc(Cl)c(C#N)c1C1CN(S(=O)(=O)C2CC2)C1 (single isomer, unassigned) [Example 251, 4-[1-(4-Amino-3-methyl-1H-pyrazolo[3,4-d]pyrimidin-1-yl)ethyl]-6-chloro-2-[1-(cyclopropylsulfonyl)azetidin-3-yl]-3-ethoxybenzonitrile]
CCOc1c(C(C)n2nc(C)c3c(N)ncnc32)cc(Cl)c(C#N)c1C1CN(C(=O)OC)C1 (single isomer, unassigned) [Example 252, Methyl 3-{3-[1-(4-amino-3-methyl-1H-pyrazolo[3,4-d]pyrimidin-1-yl)ethyl]-5-chloro-6-cyano-2-ethoxyphenyl}azetidine-1-carboxylate]
CCOC(=O)N1CC(c2c(C#N)c(Cl)cc(C(C)n3nc(C)c4c(N)ncnc43)c2OCC)C1 (single isomer, unassigned) [Example 253, Ethyl 3-{3-[1-(4-amino-3-methyl-1H-pyrazolo[3,4-d]pyrimidin-1-yl)ethyl]-5-chloro-6-cyano-2-ethoxyphenyl}azetidine-1-carboxylate]
CCOc1c(C(C)n2nc(C)c3c(N)ncnc32)cc(Cl)c(C#N)c1C1CN(C(=O)NC(C)(C)C)C1 (single isomer, unassigned) [Example 255, 3-{3-[1-(4-Amino-3-methyl-1H-pyrazolo[3,4-d]pyrimidin-1-yl)ethyl]-5-chloro-6-cyano-2-ethoxyphenyl}-N-(tert-butyl)azetidine-1-carboxamide]
CCOc1c(C(C)n2nc(C)c3c(N)ncnc32)cc(Cl)c(C#N)c1C1CN(C(N)=O)C1 (single isomer, unassigned) [Example 256, 3-{3-[1-(4-Amino-3-methyl-1H-pyrazolo[3,4-d]pyrimidin-1-yl)ethyl]-5-chloro-6-cyano-2-ethoxyphenyl}azetidine-1-carboxamide]
CCNC(=O)N1CC(c2c(C#N)c(Cl)cc(C(C)n3nc(C)c4c(N)ncnc43)c2OCC)C1 (single isomer, unassigned) [Example 258, 3-{3-[1-(4-Amino-3-methyl-1H-pyrazolo[3,4-d]pyrimidin-1-yl)ethyl]-5-chloro-6-cyano-2-ethoxyphenyl}-N-ethylazetidine-1-carboxamide]
CCOc1c(C(C)n2nc(C)c3c(N)ncnc32)cc(Cl)c(C#N)c1C1CN(C(=O)N(C)C)C1 (single isomer, unassigned) [Example 259, 3-{3-[1-(4-Amino-3-methyl-1H-pyrazolo[3,4-d]pyrimidin-1-yl)ethyl]-5-chloro-6-cyano-2-ethoxyphenyl}-N,N-dimethylazetidine-1-carboxamide]
CCN1CC(c2c(C#N)c(Cl)cc(C(C)n3nc(C)c4c(N)ncnc43)c2OC)C1 (single isomer, unassigned) [Example 263, 4-[1-(4-Amino-3-methyl-1H-pyrazolo[3,4-d]pyrimidin-1-yl)ethyl]-6-chloro-2-(1-ethylazetidin-3-yl)-3-methoxybenzonitrile]
COc1c(C(C)n2nc(C)c3c(N)ncnc32)cc(Cl)c(C#N)c1C1CN(CC(C)C)C1 (single isomer, unassigned) [Example 265, 4-[1-(4-Amino-3-methyl-1H-pyrazolo[3,4-d]pyrimidin-1-yl)ethyl]-6-chloro-2-(1-isobutylazetidin-3-yl)-3-methoxybenzonitrile]
COc1c(C(C)n2nc(C)c3c(N)ncnc32)cc(Cl)c(C#N)c1C1CN(CC2CC2)C1 (single isomer, unassigned) [Example 266, 4-[1-(4-Amino-3-methyl-1H-pyrazolo[3,4-d]pyrimidin-1-yl)ethyl]-6-chloro-2-[1-(cyclopropylmethyl)azetidin-3-yl]-3-methoxybenzonitrile]
COc1c(C(C)n2nc(C)c3c(N)ncnc32)cc(Cl)c(C#N)c1C1CN(C2CCC2)C1 (single isomer, unassigned) [Example 267, 4-[1-(4-Amino-3-methyl-1H-pyrazolo[3,4-d]pyrimidin-1-yl)ethyl]-6-chloro-2-(1-cyclobutylazetidin-3-yl)-3-methoxybenzonitrile]
COc1c(C(C)n2nc(C)c3c(N)ncnc32)cc(Cl)c(C#N)c1C1CN(CC2CCOCC2)C1 (single isomer, unassigned) [Example 280, 4-[1-(4-Amino-3-methyl-1H-pyrazolo[3,4-d]pyrimidin-1-yl)ethyl]-6-chloro-3-methoxy-2-[1-(tetrahydro-2H-pyran-4-ylmethyl)azetidin-3-yl]benzonitrile]
CCC(=O)N1CC(c2c(C#N)c(Cl)cc(C(C)n3nc(C)c4c(N)ncnc43)c2OC)C1 (single isomer, unassigned) [Example 282, 4-[1-(4-Amino-3-methyl-1H-pyrazolo[3,4-d]pyrimidin-1-yl)ethyl]-6-chloro-3-methoxy-2-(1-propionylazetidin-3-yl)benzonitrile]
COc1c(C(C)n2nc(C)c3c(N)ncnc32)cc(Cl)c(C#N)c1C1CN(C(=O)C(C)C)C1 (single isomer, unassigned) [Example 283, 4-[1-(4-Amino-3-methyl-1H-pyrazolo[3,4-d]pyrimidin-1-yl)ethyl]-6-chloro-2-(1-isobutyrylazetidin-3-yl)-3-methoxybenzonitrile]
